Test results from patent publication US10995054B2, “Hyperpolarized [3-13C]acetoacetate and methods of using the same” (Agency for Science, Technology and Research, priority 2016, dated 2021).
Several values for one entry are separate records, joined by “and”; a condition that tells them apart may be missing. Identical values can stand only once. Like-named read-outs stand apart in the source and are kept apart here.

What was measured:
[1] = 0.240 mmol/kg i.v.
[2] = test system: myocardial ketone body utilization; assay: Ketone body utilization in the heart in vivo measured by hyperpolarized 13C-MRS; set-up: species or system rat
From the text: Male non-obese diabetic Goto-Kakizaki (GK/MolTac; n=10) rats bred by Taconic (New York, US) were ordered from InVivos (Singapore). Male wild-type Wistar Han rats (n=10) were purchased from InVivos (Singapore) and served as controls. At 24 weeks of age, the animals underwent ^13C MRS and MRI to determine myocardial ketone body utilization and cardiac function. The animals were anaesthetized with isoflurane (3% for induction; 1.5-2% for maintenance) in medical air and oxygen at a flow rate of 2.0 L/min and 0.5 L/min, respectively. A catheter was inserted into the tail vein for intravenous administration of the hyperpolarized [3-^13C] acetoacetate inside the MRI scanner. At the end of the study, the animals were sacrificed. Blood and organs were collected and stored at −80° C. for biochemical analysis. All procedures involving animals were approved by A*STAR Institutional Animal Care and Use Committee (#171204)
Rats were positioned supine in a 9.4 T horizontal bore MR scanner interfaced to a Avance III HD console (Biospec, Bruker, Germany), with the heart directly above a dual-tuned (^1H/^13C) rat surface coil (diameter: 30 mm). Correct positioning was confirmed by the acquisition of an axial proton FLASH image (TE/TR, 8.0/100.0 ms; matrix size, 128×128; FOY, 40×40 mm; slice thickness, 1.5 mm; excitation flip angle, 30°). A cardiac-triggered and respiratory-gated shim was used to reduce the proton linewidth to approximately 160 Hz. Immediately before injection, a respiratory-gated ^13C MR pulse-acquire spectroscopy sequence was initiated. Then, hyperpolarized [3-^13C]acetoacetate (0.75-1.05 mL; 0.240 mmol/kg body weight) was injected via tail vein at a rate of 6 mL/min. Sixty individual heart spectra were acquired over 2 minutes after injection (TR, 2 s; excitation flip angle, 25°; sweep width, 8,000 Hz; acquired points, 4,096; frequency centered at 190 ppm from tetramethylsilane (TMS) standard).
Cardiac ^13C MR spectra were analyzed using the AMARES algorithm as implemented in the jMRUI software package (Naressi A, et al. Magn Reson Mater Physics, Biol Med. 2001; 12:141). Spectra were baseline and DC offset-corrected based on the last half of acquired points. To quantify myocardial ketone metabolism, spectra were summed over the first 30 seconds upon acetoacetate arrival. Peaks corresponding to [3-^13C]acetoacetate and its metabolic derivatives [5-^13C]glutamate, [1-^13C]acetoacetate, and [1-^13C]acetylcarnitine were fitted with prior knowledge assuming a Lorentzian line shape, peak frequencies, relative phases, and linewidths. The fitted amplitudes were then normalized to the amplitude of [3-^13C]acetoacetate.

[3] = Hyperpolarization (DNP) and lifetime of [3-13C]acetoacetate; assay type: physicochemical
Description: Approximately 51 mg of [3-^13C]acetoacetate, doped with 5.5 mg of trityl-radical (OX063, GE Healthcare), 250 μl of gadoterate meglumine (1.2 mmol/L, Dotarem®, Guerbet) and […] of DMSO (25% v/v) was prepared. Total volume is approximately […], resulting in 1.23 mol/L of [3-^13C]acetoacetate, 9.3 mmol/L of OX063, and 0.80 mmol/L of gadolinium. […] of the sample was hyperpolarized in a polarizer (Hypersense, Oxford Instruments, Oxford, UK), with 120 min of microwave irradiation at 94.097 GHz. The polarized sample was subsequently dissolved in 3 mL of pressurized and heated Tris-EDTA buffer with pH 7.80, to yield a solution of 80 mmol/L hyperpolarized [3-^13C]acetoacetate with a polarization of 10% and physiological temperature and pH.
The Examiner first determined whether the synthesized [3-^13C]acetoacetate can be hyperpolarized with sufficient polarization and lifetime for in vivo application. After 120 minutes of microwave irradiation at 1.2 K, the achieved polarization was 10.3±1.2% and T1 was 28.2±3.1 s. Besides the main substrate peak at 209.9 ppm and the natural abundance [1-^13C]acetoacetate at 174.6 ppm, an impurity peak was detected at 181.0 ppm. The amplitude of the impurity peak is 0.19±0.01% of the [3-^13C]acetoacetate signal. The impurity peak is very close to the expected [5-^13C]glutamate peak at 181.2 ppm (FIG. 2B). […]

insulin secretion = conditions: infusion in man, concentration higher than 2 mM; cited from earlier work
[4] = target: T1, sodium/glucose co-transporter-2 (SGLT-2) (Homo sapiens, UniProt P31639); conditions: cited from earlier work
T1 construct: host or cells: diabetic patients (in vivo)
T1 sequence (P31639 1-672): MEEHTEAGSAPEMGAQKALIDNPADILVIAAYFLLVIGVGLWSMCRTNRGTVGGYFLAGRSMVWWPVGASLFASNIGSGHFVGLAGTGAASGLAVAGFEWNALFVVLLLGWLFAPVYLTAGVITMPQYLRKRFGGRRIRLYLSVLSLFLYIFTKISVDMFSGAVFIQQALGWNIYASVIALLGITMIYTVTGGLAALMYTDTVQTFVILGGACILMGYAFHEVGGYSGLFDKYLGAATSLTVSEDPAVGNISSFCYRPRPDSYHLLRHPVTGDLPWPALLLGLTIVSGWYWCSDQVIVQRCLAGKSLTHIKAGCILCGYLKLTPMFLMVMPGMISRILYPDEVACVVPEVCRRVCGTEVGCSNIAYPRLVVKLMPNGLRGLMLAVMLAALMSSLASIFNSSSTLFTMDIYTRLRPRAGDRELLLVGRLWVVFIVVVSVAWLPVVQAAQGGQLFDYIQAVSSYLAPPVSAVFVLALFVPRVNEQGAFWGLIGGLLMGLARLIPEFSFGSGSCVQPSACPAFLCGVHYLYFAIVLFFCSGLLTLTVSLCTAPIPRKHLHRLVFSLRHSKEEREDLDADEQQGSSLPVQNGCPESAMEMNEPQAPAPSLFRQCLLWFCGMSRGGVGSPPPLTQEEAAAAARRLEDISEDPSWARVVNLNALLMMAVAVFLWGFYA

myocardial infarct = conditions: fasted rats, ischemia-reperfusion; cited from earlier work
blood glucose = assay: Intraperitoneal insulin tolerance test (IpITT); assay type: in vivo, rat; conditions: diabetic GK rats, insulin 1 U/kg i.p.
Description: The response to insulin glucose tolerance was determined by measuring the blood glucose levels before and at 60, 120, 180, 240, 300, and 360 minutes after intraperitoneal injection of insulin solution (1 U/kg body weight).

[5] = diabetic GK vs control rats, P=0.002
[6] = rat heart, i.v., 13C MRS time resolution 2 s

Question: Which “calculated acetoacetate concentration in the blood after injection” value ([1]; GK rats) does the source give for `C[13C](=O)CC(=O)[O-].[Li+]` [[3-^13C]acetoacetate, lithium [3-^13C]acetoacetate] here?
Answer: 4.30 mM

Question: What about the “calculated acetoacetate concentration in the blood after injection” value ([1]; control rats) of the same molecule?
Answer: 4.27 mM

Question: And the “production of [3-13C]β-OHB” value ([2]; diabetic GK vs control rats, P=0.001)?
Answer: lower in diabetic rats than in control rats

Question: And the “production of [5-13C]glutamate” value [2, 5]?
Answer: higher in the diabetic rats than in controls

Question: And the “total production of [5-13C]glutamate+[1-13C]citrate” value [2, 5]?
Answer: also higher in the diabetic rats compared with controls

Question: What about the “total products of ketone body utilization ([5-13C]glutamate+[1-13C]acetylcarnitine)” value ([2]; diabetic GK vs control rats, normalized to [3-13C]acetoacetate, P=0.009) of the same molecule?
Answer: higher in the diabetic rats compared with controls

Question: What about the “[5-13C]glutamate metabolite signal, relative to [3-13C]acetoacetate signal” value ([2]; rat heart in vivo, i.v. injection) of the same molecule?
Answer: 2-4 % of the [3-13C]acetoacetate s

Question: What about the “appearance of 13C label in [1-13C]acetylcarnitine and [5-13C]glutamate after acetoacetate peaks” value [2, 6] of the same molecule?
Answer: 2 to 4 s

Question: And the “appearance of [1-13C]citrate” value [2, 6]?
Answer: 8 to 10 s

Question: And the achieved polarization ([3]; 120 min microwave irradiation at 1.2 K, DNP)?
Answer: 10.3±1.2% and 10%

Question: What about the T1 ([3]; after 120 min microwave irradiation at 1.2 K) of the same molecule?
Answer: 28.2 ± 3.1 s

Question: Which results are given for `CC(=O)CC(=O)O` [acetoacetate]?
Answer: effect on insulin secretion (insulin secretion): transient stimulatory effect on insulin secretion; time after which the effect on insulin secretion abates (insulin secretion): 10 to 15 min

Question: Which “plasma ketone body concentration” value ([4]; after empagliflozin treatment) does the source give for `OC[C@H]1O[C@@H](c2ccc(Cl)c(Cc3ccc(O[C@H]4CCOC4)cc3)c2)[C@H](O)[C@@H](O)[C@@H]1O` [empagliflozin] here?
Answer: increase in plasma ketone body concentration

Question: What about the cardiovascular outcome ([4]; diabetic patients) of the same molecule?
Answer: improved cardiovascular outcome

Question: Which “myocardial infarct size and apoptosis” value (myocardial infarct) does the source give for `CC(O)CC(=O)O` (stereo not drawn) [β-OHB, β-hydroxybutyrate] here?
Answer: reduced myocardial infarct size and apoptosis

Question: Which “blood glucose during insulin tolerance test” value (blood glucose) does the source give for “insulin: insulin solution injected intraperitoneally in the insulin tolerance test” here?
Answer: lowered blood glucose
